The values below come from ChEMBL document CHEMBL4308877, “Thiazole, thio and semicarbazone derivatives against tropical infective diseases: Chagas disease, human African trypanosomiasis (HAT), leishmaniasis, and malaria” (Eur J Med Chem, 2019).

The test system of one data set is MKN-45. The experiment in a line: Cytotoxicity against human MKN45 cells assessed as reduction in cell viability after 72 hrs by MTT assay. It is filed as functional, cell-based. To be noted: MKN-45, 72 h.
Another data set concerns HT-29. The experiment in a line: Cytotoxicity against human HT-29 cells assessed as reduction in cell viability after 72 hrs by MTT assay. Format: functional, cell-based. To be noted: HT-29, 72 h.
A further data set concerns A549. In words: Cytotoxicity against human A549 cells assessed as reduction in cell viability after 72 hrs by MTT assay. Format: functional, cell-based. The conditions noted are these: A549, 72 h.
In a further data set the test system is MDA-MB-231. The experiment in a line: Cytotoxicity against human MDA-MB-231 cells assessed as reduction in cell viability after 72 hrs by MTT assay. Format: functional, cell-based. To be noted: MDA-MB-231, 72 h.
The nature of data set [1]: Selectivity index, ratio of IC50 for HEK293T cells to IC50 for Trypanosoma brucei brucei AnTat1.1E. To be noted: human. Format: toxicity.
In data set [2] the test system is Trypanosoma brucei brucei. In words: Anti-parasitic activity against Trypanosoma brucei brucei AnTat1.1E. It is filed as functional, organism-based.
Data set [3] deals with Cruzipain (Trypanosoma cruzi) (UniProt P25779). In words: Inhibition of recombinant Trypanosoma cruzi CL epimastigotes form cruzain at 100 uM using Z-FR-AMC as substrate preincubated for 10 mins followed by substrate addition measured after 5 mins by fluorimetric analysis relative to control.
Data set [4] is described as follows: Selectivity index, ratio of cytotoxic activity for monkey LLC-MK2 cells to IC50 for trypomastigote stage of Trypanosoma cruzi Y. It is filed as toxicity.
The test system of data set [5] is Trypanosoma cruzi. The experiment in a line: Anti-parasitic activity against trypomastigote stage of Trypanosoma cruzi Y infected in monkey LLC-MK2 cells after 24 hrs. Format: functional, organism-based. The conditions noted are these: LLC-MK2, 24 h.
Data set [6] can be described thus: Selectivity index, ratio of IC50 for human SK-N-SH cells to IC50 for wild type Trypanosoma brucei. Format: toxicity. To be noted: read-out: Ratio IC50.
Data set [7] has as its system Trypanosoma brucei. The experiment in a line: Anti-parasitic activity against wild type Trypanosoma brucei. It is filed as functional, organism-based.
In data set [8] the test system is Trypanosoma brucei. In words: Anti-parasitic activity against type 1 nitroreductase over-expressing Trypanosoma brucei. Format: functional, organism-based.
Data set [9] can be described thus: Selectivity index, ratio of IC50 for human THP1 cells to IC50 for Trypanosoma brucei overexpressing the type 1 nitroreductase. Format: toxicity. To be noted: read-out: Ratio IC50.
Data set [10] deals with Trypanosoma cruzi. In words: Anti-parasitic activity against amastigote stage of Trypanosoma cruzi Tulahuen CL2 infected in human MRC5 cells after 7 days by […] reporter gene assay. It is filed as functional, organism-based. To be noted: Tulahuen CL2, MRC5, 168 h.
Data set [11] in a line: Selectivity index, ratio of cytotoxic activity for African green monkey Vero cells to IC50 for amastigote stage of Trypanosoma cruzi Tulahuen CL2. It is filed as toxicity.
In data set [12] the test system is Trypanosoma brucei brucei. The experiment in a line: Anti-parasitic activity against trypomastigote stage of Trypanosoma brucei brucei. It is filed as functional, organism-based.
Data set [13] can be described thus: Selectivity index, ratio of IC50 for human WI38 cells to IC50 for trypomastigote stage of Trypanosoma brucei brucei. It is filed as toxicity. The conditions noted are these: read-out: Ratio IC50.
The nature of data set [14]: Selectivity index, ratio of EC50 for human U-937 cells to IC50 for amastigote stage of EGFP-fused Leishmania panamensis MHOM/CO/87/UA140. It is filed as toxicity. To be noted: read-out: Selectivity Index.
Another data set relates to Leishmania panamensis. The experiment in a line: Anti-parasitic activity against amastigote stage of EGFP-fused Leishmania panamensis MHOM/CO/87/UA140 infected in human U-937 cells after 72 hrs by flow cytometric analysis. Format: functional, organism-based. To be noted: MHOM/CO/87/UA140, U-937, 72 h.
Data set [15] deals with Leishmania amazonensis. In words: Anti-parasitic activity against amastigote stage of Leishmania amazonensis WHOM/00 LTB 0016 infected in mouse macrophages after 24 hrs. Format: functional, organism-based. The conditions noted are these: WHOM/00 LTB 0016, 24 h.
Data set [16] concerns Leishmania amazonensis. In words: Anti-parasitic activity against promastigote stage of Leishmania amazonensis WHOM/00 LTB 0016 after 96 hrs. Format: functional, organism-based. To be noted: WHOM/00 LTB 0016, 96 h.
The nature of data set [17]: Selectivity index, ratio of CC50 for mouse macrophages to IC50 for promastigote stage of Leishmania amazonensis WHOM/00 LTB 0016. The conditions noted are these: read-out: Ratio CC50/IC50. Format: toxicity.
The nature of data set [18]: Selectivity index, ratio of CC50 for mouse macrophages to IC50 for amastigote stage of Leishmania amazonensis WHOM/00 LTB 0016. The conditions noted are these: read-out: Ratio CC50/IC50. It is filed as toxicity.
A further data set concerns NCI-H460. The experiment in a line: Cytotoxicity against human H460 cells assessed as reduction in cell viability after 72 hrs by MTT assay. Format: functional, cell-based. To be noted: NCI-H460, 72 h.
For the next data set, the system named is WI-38. The experiment in a line: Cytotoxicity against human WI38 cells assessed as reduction in cell viability after 72 hrs by MTT assay. Format: cell-based. To be noted: WI-38, 72 h.
In data set [19] the target is Platelet-derived growth factor receptor alpha (Homo sapiens) (UniProt P16234). The experiment in a line: Inhibition of recombinant GST-tagged human PDGFRalpha (550 to 1089 residues) cytoplasmic domain expressed in baculovirus expression system at 10 uM using peptide as substrate preincubated for 1 hr followed by substrate addition measured after 20 mins by HTRF assay relative to control.

For data set [20], the target named is Hepatocyte growth factor receptor (Homo sapiens) (UniProt P08581). The experiment in a line: Inhibition of recombinant N-terminal His6-tagged human c-MET (974 to end residues) expressed in baculovirus infected Sf21 cells at 10 uM using peptide as substrate preincubated for 1 hr followed by substrate addition measured after 20 mins by HTRF assay relative to control.

For data set [21], the target named is RAF proto-oncogene serine/threonine-protein kinase (Homo sapiens) (UniProt P04049). The experiment in a line: Inhibition of c-Raf (unknown origin) at 10 uM using peptide as substrate preincubated for 1 hr followed by substrate addition measured after 20 mins by HTRF assay relative to control.
Data set [22] addresses Vascular endothelial growth factor receptor 2 (Homo sapiens) (UniProt P35968). The experiment in a line: Inhibition of recombinant GST-tagged human KDR (789 to end residues) expressed in baculovirus infected Sf9 cells at 10 uM using peptide as substrate preincubated for 1 hr followed by substrate addition measured after 20 mins by HTRF assay relative to control.

Sequence of Vascular endothelial growth factor receptor 2 (Homo sapiens) (P35968 whole entry): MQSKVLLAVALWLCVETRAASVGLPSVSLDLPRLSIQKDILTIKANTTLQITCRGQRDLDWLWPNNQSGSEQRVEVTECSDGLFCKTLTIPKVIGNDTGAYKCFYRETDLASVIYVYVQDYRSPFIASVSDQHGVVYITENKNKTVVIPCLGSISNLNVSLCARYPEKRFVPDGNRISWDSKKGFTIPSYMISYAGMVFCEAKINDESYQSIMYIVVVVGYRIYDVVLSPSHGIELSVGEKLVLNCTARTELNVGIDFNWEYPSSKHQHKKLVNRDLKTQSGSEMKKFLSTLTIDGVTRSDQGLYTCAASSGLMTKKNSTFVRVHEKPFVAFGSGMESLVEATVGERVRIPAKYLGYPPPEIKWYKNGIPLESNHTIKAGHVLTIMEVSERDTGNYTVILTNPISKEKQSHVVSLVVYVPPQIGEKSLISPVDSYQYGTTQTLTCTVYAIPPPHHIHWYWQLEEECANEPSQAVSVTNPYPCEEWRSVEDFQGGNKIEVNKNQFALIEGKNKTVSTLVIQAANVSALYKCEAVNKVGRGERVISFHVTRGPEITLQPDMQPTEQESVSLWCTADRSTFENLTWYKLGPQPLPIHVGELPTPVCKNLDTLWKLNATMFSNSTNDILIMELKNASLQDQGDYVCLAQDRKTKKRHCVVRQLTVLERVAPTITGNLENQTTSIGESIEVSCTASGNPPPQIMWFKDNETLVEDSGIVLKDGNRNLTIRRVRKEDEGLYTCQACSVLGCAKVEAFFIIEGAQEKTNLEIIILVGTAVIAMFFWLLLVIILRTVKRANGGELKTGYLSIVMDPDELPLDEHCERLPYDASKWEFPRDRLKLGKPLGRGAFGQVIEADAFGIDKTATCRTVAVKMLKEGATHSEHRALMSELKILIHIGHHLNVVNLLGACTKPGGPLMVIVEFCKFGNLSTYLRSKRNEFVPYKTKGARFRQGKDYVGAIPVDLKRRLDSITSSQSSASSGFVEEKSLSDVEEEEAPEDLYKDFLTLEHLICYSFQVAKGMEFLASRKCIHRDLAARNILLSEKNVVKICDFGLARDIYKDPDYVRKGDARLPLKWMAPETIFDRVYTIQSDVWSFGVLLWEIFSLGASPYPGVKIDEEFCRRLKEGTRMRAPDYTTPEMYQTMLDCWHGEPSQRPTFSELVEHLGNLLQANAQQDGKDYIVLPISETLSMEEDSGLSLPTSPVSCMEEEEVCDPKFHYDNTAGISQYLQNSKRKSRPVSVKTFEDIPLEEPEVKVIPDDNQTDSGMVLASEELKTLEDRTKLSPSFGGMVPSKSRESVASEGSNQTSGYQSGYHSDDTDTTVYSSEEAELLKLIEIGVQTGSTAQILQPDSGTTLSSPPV
Sequence of Hepatocyte growth factor receptor (Homo sapiens) (P08581 whole entry): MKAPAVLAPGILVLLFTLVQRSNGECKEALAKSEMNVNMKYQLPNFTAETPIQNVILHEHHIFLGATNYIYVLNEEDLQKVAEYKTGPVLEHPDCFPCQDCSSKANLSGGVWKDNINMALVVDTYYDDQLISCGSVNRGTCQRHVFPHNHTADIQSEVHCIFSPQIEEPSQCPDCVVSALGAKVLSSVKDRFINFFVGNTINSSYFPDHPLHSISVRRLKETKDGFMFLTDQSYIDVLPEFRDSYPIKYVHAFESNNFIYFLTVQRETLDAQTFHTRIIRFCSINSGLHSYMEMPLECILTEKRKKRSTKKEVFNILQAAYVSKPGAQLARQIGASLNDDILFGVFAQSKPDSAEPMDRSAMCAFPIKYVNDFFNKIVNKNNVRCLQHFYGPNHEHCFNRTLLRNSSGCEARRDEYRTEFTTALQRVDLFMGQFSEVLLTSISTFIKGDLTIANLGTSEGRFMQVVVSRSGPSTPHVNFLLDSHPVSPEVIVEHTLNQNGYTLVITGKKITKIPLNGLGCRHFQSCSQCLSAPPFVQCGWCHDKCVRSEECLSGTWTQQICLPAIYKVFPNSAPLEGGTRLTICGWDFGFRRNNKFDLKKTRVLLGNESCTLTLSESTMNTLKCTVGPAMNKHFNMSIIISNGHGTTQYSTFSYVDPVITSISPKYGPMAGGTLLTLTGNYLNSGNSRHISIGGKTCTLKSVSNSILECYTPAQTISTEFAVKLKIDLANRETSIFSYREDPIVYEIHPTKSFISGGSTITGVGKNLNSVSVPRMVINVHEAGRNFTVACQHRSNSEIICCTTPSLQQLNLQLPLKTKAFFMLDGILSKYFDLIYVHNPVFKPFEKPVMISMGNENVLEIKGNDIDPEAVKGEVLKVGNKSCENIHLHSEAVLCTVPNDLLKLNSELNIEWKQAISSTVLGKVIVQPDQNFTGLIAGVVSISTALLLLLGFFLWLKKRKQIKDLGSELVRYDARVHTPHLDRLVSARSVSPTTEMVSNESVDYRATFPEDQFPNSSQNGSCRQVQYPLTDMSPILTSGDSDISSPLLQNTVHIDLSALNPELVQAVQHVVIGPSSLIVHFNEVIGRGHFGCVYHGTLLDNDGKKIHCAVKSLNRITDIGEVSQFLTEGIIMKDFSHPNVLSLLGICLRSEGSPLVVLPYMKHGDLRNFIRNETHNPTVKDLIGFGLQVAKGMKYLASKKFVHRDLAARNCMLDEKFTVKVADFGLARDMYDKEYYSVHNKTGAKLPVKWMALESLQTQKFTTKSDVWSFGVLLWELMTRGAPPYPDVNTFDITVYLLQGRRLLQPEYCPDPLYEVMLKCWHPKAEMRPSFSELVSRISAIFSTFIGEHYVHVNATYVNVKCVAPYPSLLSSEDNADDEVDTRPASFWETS
Sequence of Cruzipain (Trypanosoma cruzi) (P25779 123-467 limits assumed): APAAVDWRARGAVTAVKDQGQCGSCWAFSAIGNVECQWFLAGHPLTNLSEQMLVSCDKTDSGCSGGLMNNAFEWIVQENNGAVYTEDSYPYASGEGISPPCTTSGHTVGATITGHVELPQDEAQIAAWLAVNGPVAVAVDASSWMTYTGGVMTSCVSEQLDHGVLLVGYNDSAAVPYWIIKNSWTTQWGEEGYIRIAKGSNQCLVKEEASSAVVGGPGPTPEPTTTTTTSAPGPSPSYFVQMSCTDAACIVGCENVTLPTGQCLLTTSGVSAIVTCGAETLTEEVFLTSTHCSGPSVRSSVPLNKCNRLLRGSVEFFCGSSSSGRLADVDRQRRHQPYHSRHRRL
Sequence of RAF proto-oncogene serine/threonine-protein kinase (Homo sapiens) (P04049 whole entry): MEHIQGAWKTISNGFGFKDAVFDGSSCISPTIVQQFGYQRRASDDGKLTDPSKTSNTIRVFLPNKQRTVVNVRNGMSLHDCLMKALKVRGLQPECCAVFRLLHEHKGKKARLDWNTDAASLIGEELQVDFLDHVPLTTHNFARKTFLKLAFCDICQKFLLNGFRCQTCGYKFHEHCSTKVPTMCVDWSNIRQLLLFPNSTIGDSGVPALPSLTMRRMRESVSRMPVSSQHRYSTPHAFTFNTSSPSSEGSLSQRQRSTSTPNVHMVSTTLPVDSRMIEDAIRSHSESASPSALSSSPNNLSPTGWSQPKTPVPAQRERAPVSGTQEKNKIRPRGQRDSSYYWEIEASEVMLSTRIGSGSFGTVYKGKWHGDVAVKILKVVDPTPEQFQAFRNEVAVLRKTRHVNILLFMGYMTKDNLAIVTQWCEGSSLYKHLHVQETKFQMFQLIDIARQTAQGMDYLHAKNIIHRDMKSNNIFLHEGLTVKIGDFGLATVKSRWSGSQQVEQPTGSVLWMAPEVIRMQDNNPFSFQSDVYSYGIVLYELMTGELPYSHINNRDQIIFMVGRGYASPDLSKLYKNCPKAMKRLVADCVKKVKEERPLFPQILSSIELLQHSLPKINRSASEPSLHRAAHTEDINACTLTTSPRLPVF
Sequence of Platelet-derived growth factor receptor alpha (Homo sapiens) (P16234 whole entry, the tested form may be a part): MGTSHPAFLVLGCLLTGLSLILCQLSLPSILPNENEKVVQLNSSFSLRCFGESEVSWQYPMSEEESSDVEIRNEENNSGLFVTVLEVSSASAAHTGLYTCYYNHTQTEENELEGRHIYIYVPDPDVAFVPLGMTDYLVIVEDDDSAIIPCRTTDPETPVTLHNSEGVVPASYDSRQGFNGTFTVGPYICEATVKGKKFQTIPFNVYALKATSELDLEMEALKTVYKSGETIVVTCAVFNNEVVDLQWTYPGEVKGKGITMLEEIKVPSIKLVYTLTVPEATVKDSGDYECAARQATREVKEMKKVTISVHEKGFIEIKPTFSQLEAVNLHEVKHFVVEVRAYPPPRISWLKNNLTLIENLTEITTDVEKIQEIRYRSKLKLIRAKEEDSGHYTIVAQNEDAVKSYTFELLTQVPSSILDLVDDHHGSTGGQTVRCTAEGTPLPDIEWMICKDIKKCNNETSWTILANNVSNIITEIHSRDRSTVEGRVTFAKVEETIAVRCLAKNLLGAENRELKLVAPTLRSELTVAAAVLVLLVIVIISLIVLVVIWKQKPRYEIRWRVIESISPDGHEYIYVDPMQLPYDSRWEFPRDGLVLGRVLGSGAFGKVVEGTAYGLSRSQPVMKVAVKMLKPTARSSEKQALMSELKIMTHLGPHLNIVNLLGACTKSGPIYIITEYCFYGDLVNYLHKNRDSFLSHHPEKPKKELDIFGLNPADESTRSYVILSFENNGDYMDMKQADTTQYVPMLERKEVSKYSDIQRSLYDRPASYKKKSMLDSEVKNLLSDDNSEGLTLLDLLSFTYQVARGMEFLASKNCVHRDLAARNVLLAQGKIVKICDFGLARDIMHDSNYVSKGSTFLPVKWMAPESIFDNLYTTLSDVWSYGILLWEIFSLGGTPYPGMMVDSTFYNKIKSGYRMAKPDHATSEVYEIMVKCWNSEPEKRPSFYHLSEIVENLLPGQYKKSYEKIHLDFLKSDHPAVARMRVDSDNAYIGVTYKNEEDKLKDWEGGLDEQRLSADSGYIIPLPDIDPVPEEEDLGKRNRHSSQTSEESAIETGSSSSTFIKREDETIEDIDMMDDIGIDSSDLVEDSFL

`COc1cc2c(Oc3ccc(/C=N/NC(=O)Nc4ccccc4F)cc3F)ccnc2cc1OCCCN1CCCCC1`: the IC50 in the data set on MKN-45 came to 16 nM; in the data set on HT-29, 59 nM; in the data set with A549, 9 nM; in the data set with MDA-MB-231, 770 nM.
`CCOC(=O)c1ccc(-n2sc3ccccc3c2=O)cc1`: in [1], the selectivity ratio was greater than 267. In data set [2], this compound showed an IC50 of 937 nM.
`CC(C)c1ccc(/C=N/NC(N)=S)cc1`: the inhibition in data set [3] worked out at 70%.
Regarding `CCC1S/C(=N/N=C(/COc2ccccc2)c2ccc(-c3ccccc3)cc2)NC1=O` (configuration not stated), the selectivity ratio in data set [4] is greater than 21.6. The same compound displayed an IC50 with Trypanosoma cruzi [5] of 10.8 µM.
Take `CCCC(=O)Nc1ncc([N+](=O)[O-])s1`: the selectivity ratio in data set [6] is greater than 15; in data set [9], greater than 156. Besides, the values for the IC50 in the data set on Trypanosoma brucei [7] and with Trypanosoma brucei [8] were 6.47 µM and 640 nM, respectively.
As for `CCC1S/C(=N/N=C(/COc2ccccc2)c2ccc(Br)cc2)NC1=O` (configuration not stated), in data set [4], the selectivity ratio is greater than 57.9. Further, in the data set with Trypanosoma cruzi [5], the 50% inhibitory concentration (IC50) came out at 4 µM.
With `CCOc1cccc2sc(N(Cc3cccnc3)C(=O)C3CCCCC3)nc12`, half-maximal inhibition with Trypanosoma cruzi [10] (IC50) was put at 160 nM. Moreover, the selectivity ratio in data set [11] was greater than 200.
For `CC1=C/C(=N/NC(=S)Nc2ccccc2)C(C(C)C)CC1` (configuration not stated), the midpoint of inhibition in data set [12], the IC50, lay at 10.9 µM. Further, in data set [13], the selectivity ratio is 12.3.
As for `O=C(N/N=C1\CC(c2ccccc2)Sc2ccccc21)c1ccncc1` (configuration not stated), in [14], the selectivity ratio was 33.9. This compound registered an EC50 with Leishmania panamensis of 16.4 µM.
As to `NC(=S)N/N=C(/COc1ccccc1)c1ccc(Cl)cc1`, the IC50 in the data set with Leishmania amazonensis [15] is 40.3 µM; in the data set with Leishmania amazonensis [16] it was 4.9 µM. Also, the selectivity ratio in data set [17] is 22.8; in data set [18], 2.77.
On to `O=C(N/N=C/c1c(Cl)cccc1Cl)Nc1ccc(Oc2ccnc(-n3cnnn3)c2)c(F)c1`, for which the IC50 in the data set with NCI-H460 was 360 nM; with WI-38, 3.96 µM; in the data set with MKN-45 it was 970 nM; in the data set with HT-29, 80 nM. Further, the inhibition in data set [19] stood at 14%; in data set [20], 14%; in data set [21], 70.7%; in data set [22], 14%.
Take `CCCCC(=O)Nc1ncc([N+](=O)[O-])s1`: the figures for the selectivity ratio in data set [6] and in [9] were greater than 23 and greater than 175, respectively. The values for the IC50 in the data set with Trypanosoma brucei [7] and in the data set with Trypanosoma brucei [8] were 4.32 µM and 570 nM, respectively.
